Where two headings read alike, the source gives them in different places.
Legend:
[1] = molecular target: T1, PDE3 (Homo sapiens, UniProt Q14432); experiment: In vitro assay for cAMP PDE-3 inhibitory activity; format: biochemical
T1 construct: from tissue; host or cells: human platelets

[2] = molecular target: T2, human recombinant beta-1 receptors (Homo sapiens, UniProt P08588); experiment: β1-receptor radioligand binding, [125I] iodocyanopindolol, CHO-REX16 cells; conditions: at 100 nM
T2 construct: expressed in transfected cells; host or cells: CHO-REX16 cells
Experimental: […] receptor binding was measured in human recombinant beta-1 receptors expressed in CHO-REX16 cells, using [^125I] (-) iodocyanopindolol (2000 Ci/mmol) as the radioligand, as described in Kalaria et al., J. Neurochem. 53: 1772-81 (1998), and Minneman et al., Mol. Pharmacol. 16: 34-46 (1979).

[3] = molecular target: T3, β1-adrenergic receptor (Rattus norvegicus, UniProt P18090); experiment: β1-adrenergic radioligand binding assay using rat cortical membranes
T3 construct: from tissue; host or cells: rat cortical membranes
Experimental: (§1) Non-selective β-adrenergic and β1-adrenergic radioligand binding assays were performed using rat cortical membranes; β2-adrenergic receptor assays were performed using membranes isolated from CHO cells expressing human, recombinant b2-adrenergic receptor; non-selective α1-adrenergic receptor assays were performed using rat forebrain membranes; and PDE3 binding assays were performed on human platelets. Values in percent illustrate percent inhibition at 1000 nM concentration.

[4] = molecular target: α1-adrenergic receptor; experiment: Non-selective α1-adrenergic receptor assay using rat forebrain membranes; format: binding
Experimental: as §1, with “The ability of Compounds 25 and 8c to inhibit PDE3 and β-adrenergic receptor activity was examined both in vitro and in vivo. […] Non-selective” for “Non-selective”

[5] = test system: isolated ventricular myocytes; experiment: Sarcomere shortening (contractility) in isolated ventricular myocytes; format: cell-based, rabbit
Experimental: […] Isoproterenol, a potent β-Adrenergic agonist, can produce large increases in cardiac contraction, calcium transient amplitude, and the rates of relaxation (acceleration of relaxation or lusitropic effect). The effects of isoproterenol are then antagonized with different concentrations of a compound of the present invention.
Cardiac myocytes were digested from healthy white New Zealand male rabbits (3-5 lbs), with enzymatic digestion. Briefly, each animal is anesthetized with ketamine (50 mg/kg) and xylazine (6 mg/kg)-IM injection in hind limb. Once the animal was sedated (˜10-15 min), 0.1-0.3 ml of pentobarbital was injected into the ear vein. The heart was exposed by a cut just below the rib-cage and bilateral thoracotomy and removed rapidly ensuring that aorta remains intact. The heart was immediately placed in oxygenated NT with Ca^2+ placed on ice for rinsing the blood out, cleared from vessels and pericardium, cannulated and maintained at 37° C. The heart was retrogradedly perfused and tissue digested with collagenase and protease. Digested myocytes were subsequently stored in 0.1 mM Ca^2+ normal tyrodes for further analyses. Sarcomere length changes upon treatment with test compounds were recorded at 37° C. in the presence of 2 mM calcium and analyzed with an IonOptix system. Sarcomere length data was acquired for each myocyte over an average of 10 beats duration, at pacing rates of 1, 2, and 3 Hz. Basal percent sarcomere shortening and length-frequency relation of each myocyte was evaluated, and serve as a measure of cellular viability.
In vitro studies were performed using rabbit ventricular tissue, to examine the effects of Compounds 25 and 8c on myocyte contractility. New Zealand male rabbits (1.5-2.5 kg) were anesthetized with ketamine (50 mg/kg) and xylazine (6 mg/kg)-IM. The heart was exposed and removed rapidly to ensure that the aorta remained intact. The ventricular tissue was digested enzymatically. Sarcomere shortening was measured in the presence of 2 mM calcium at 37° C. using an IonOptix system; reported values were at 2 Hz pacing frequency.

[6] = test system: naive anesthetized canines; experiment: Contractility in naive anesthetized canines (protocol 2); format: in vivo, canine; conditions: administered alone (protocol 2), FIG. 17
[7] = test system: human fetal cardiac fibroblasts; experiment: Cyclic-AMP production by fluorescence (intrinsic sympathomimetic activity); format: cell-based; conditions: IBMX (750 μM) present; compared to isoproterenol or forskolin; any concentration tested
Experimental: The effect of Compound 8c on cyclic-AMP production was determined in human fetal cardiac fibroblasts by fluorescence, presented in FIG. 18 as [F−Fo)/Fo], mean±SEM, N=4. IBMX (750 μM) was present in all assays.

T1 sequence (Q14432 whole entry): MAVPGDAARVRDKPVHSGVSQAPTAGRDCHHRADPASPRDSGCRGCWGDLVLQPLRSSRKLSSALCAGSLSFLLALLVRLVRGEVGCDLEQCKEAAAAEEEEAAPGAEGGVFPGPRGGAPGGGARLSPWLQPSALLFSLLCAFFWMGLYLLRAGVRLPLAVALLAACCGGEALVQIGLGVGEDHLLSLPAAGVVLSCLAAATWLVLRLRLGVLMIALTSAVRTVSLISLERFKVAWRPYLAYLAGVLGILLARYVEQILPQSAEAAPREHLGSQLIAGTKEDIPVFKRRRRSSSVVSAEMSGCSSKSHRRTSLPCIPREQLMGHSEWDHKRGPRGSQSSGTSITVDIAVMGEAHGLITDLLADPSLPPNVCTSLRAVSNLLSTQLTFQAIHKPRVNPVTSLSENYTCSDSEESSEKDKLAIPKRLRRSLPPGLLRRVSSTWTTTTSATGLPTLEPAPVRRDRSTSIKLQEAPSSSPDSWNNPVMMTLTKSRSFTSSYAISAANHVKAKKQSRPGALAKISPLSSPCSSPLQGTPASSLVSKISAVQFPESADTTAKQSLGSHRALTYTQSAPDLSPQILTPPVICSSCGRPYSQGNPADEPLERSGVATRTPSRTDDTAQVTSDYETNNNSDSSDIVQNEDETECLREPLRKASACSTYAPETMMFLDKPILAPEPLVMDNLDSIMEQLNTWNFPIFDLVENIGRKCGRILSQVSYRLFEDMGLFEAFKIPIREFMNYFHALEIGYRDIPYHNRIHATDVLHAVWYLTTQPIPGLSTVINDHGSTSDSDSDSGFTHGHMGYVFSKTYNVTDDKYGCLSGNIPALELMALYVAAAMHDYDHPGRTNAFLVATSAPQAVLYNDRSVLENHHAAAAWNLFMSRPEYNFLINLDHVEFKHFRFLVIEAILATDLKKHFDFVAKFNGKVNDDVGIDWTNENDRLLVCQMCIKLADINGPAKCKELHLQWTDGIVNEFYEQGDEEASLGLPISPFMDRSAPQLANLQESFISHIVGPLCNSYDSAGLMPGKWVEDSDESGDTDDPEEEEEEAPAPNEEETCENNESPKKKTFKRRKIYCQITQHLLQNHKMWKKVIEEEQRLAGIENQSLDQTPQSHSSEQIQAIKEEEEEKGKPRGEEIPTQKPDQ
T3 sequence (P18090 whole entry): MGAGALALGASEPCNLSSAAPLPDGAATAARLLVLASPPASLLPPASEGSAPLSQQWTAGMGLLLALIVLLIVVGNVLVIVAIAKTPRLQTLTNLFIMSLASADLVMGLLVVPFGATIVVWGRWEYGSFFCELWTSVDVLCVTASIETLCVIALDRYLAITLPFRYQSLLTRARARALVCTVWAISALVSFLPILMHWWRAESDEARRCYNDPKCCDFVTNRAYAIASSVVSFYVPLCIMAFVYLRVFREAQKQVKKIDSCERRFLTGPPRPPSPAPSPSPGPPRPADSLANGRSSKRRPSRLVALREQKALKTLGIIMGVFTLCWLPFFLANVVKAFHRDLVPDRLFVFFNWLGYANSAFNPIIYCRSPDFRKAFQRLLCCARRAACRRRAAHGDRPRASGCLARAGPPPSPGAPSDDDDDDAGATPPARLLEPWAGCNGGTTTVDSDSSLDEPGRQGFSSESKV
T2 sequence (P08588 whole entry): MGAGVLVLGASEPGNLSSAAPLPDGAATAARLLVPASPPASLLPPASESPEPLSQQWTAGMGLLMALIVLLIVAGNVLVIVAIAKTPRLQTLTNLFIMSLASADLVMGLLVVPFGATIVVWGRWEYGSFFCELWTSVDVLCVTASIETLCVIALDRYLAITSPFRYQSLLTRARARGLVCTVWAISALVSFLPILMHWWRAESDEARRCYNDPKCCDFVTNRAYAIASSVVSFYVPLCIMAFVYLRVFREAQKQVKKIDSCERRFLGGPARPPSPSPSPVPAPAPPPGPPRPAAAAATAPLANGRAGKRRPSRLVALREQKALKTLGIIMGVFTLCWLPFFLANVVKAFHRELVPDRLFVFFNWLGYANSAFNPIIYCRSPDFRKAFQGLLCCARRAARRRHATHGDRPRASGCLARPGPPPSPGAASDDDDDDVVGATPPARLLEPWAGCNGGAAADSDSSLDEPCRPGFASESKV

IC50 ([1]; human platelet cyclic AMP phosphodiesterase, bound stated, read-out: PDE3 inhibition IC50): < 1000 nM
IC50 ([1]; human platelet cyclic AMP phosphodiesterase, bound stated, read-out: PDE IC50 inhibition values): < 100 nM
IC50 ([1]; human platelets, read-out: PDE3 IC50): 19 nM
inhibition at 0.1 µM [2]: > 25%
IC50 [3]: 2 nM
IC50 [4]: 349 nM
SMILES: O=C1CCC(c2ccc(OCCNCC(O)COc3cccc4[nH]c5ccccc5c34)c(Cl)c2)=NN1 (racemic) [Compound 25, 6-(4-{2-[3-(9H-Carbazol-4-yloxy)-2-hydroxy-propylamino]-ethoxy}-3-chloro-phenyl)-4,5-dihydro-2H-pyridazin-3-one]
blocking of isoproterenol effect on myocyte contractility ([5]; 0.1 μM isoproterenol): blocking the effects of 0.1 μM isoproterenol
contractility (sarcomere shortening) in isolated ventricular myocytes ([5]; 2 mM calcium, 37° C., 2 Hz pacing frequency): increased contractility
contractility in naive anesthetized canines [6]: increased contractility in a dose-dependent manner
intrinsic sympathomimetic activity (cyclic-AMP production) [7]: neither Compound 8c nor Compound 25 possessed intrinsic sympathomimetic activity

Reference: patent publication US20080255134A1 (Artesian Therapeutics, Inc., priority 2004, published 2008)
